{
  "source": "patent US8741807B2",
  "about": "(priority 2011, dated 2014)",
  "key": {"[1]": {"test_system": "leaf blade of rice plant (variety name: Nipponbare)", "test": "Cell death spot formation on rice plant leaf blade after dropping spermidine derivative solution", "assay_type": "in vivo", "settings": "for formation of cell death spots: 1 mM aqueous solution (0.1% Tween 20), 5 μl dropped on rice leaf blade, visually evaluated; for severity of cell death compared with the compounds not introduced with hydroxyl group (Lau or ^1N Lau): same manner as Example 4, rice leaf blade", "from_the_text": "(§1) It is known that spermidine treatment of leaf blades forms HR (Hypersensitive Response) like cell death spots in various plant species (Plant Physiol., 132(4), pp. 1973-1981, […]).\nThe results of examination for severity of cell death are shown in FIG. 12, and those for formation of cell death spots are shown in FIG. 13. The severity of cell death was enhanced by each of the compounds introduced with one hydroxyl group at the terminal carbon atom of the lauroyl group (HydLau: YIS12OH4N, 1NHydLau: YIS12OH1N) compared with the compounds not introduced with hydroxyl group (Lau or ^1N Lau)."}, "[2]": {"test_system": "rice blast fungus (Kyu89-246, MAFF101506, race 003.0)", "assay_type": "cell-based", "settings": "for antifungal activity against the rice blast fungus: even at the 10 mM concentration; for formation of inhibition ring against the rice blast fungus: filter paper disks, 1 mM, 5 mM or 10 mM, 28° C., 5 to 6 days, light shielding"}, "Arabidopsis thaliana": {"test_system": "Arabidopsis thaliana", "test": "Cell death in Arabidopsis thaliana by visual inspection", "assay_type": "in vivo", "settings": "same manner as Example 4, visual inspection, 3 and 7 days", "from_the_text": "as §1"}, "[3]": {"test_system": "rice plants at the five-leaf stage", "settings": "5 mM, no inoculation"}, "PR1 gene": {"test_system": "PR1 gene", "test": "PR1 gene expression enhancing action in Arabidopsis thaliana", "assay_type": "in vivo", "settings": "after 24 hours and 72 hours"}, "[4]": {"test_system": "leaf disks cut out from rice plant leaf blades", "test": "Phytoalexin production in rice plant leaf disks immersed in aqueous solution", "settings": "0.5 mM aqueous solution, 72 hours; not so severe compared with copper chloride"}},
  "note": "“Also recorded” adds a separate entry of the source.",
  "data": [
    {"molecule": "NCCCCNCCCN", "note": "[Spd, Spermidine, reference compound]", "values": [
      {"measurement": "formation of cell death spots", "setting": "[1]", "value": "observed only in a part of the treated leaves"}
    ]},
    {"molecule": "NCCCCNCCCNC(=O)CCCCCCCCCCCO", "note": "[YIS12OH1N, 1-N-(12-hydroroxylauroyl)-spermidine]", "values": [
      {"measurement": "severity of cell death compared with the compounds not introduced with hydroxyl group (Lau or ^1N Lau)", "setting": "[1]", "value": "enhanced"},
      {"measurement": "antifungal activity against the rice blast fungus", "setting": "[2]", "value": "did not have antifungal activity"},
      {"measurement": "formation of inhibition ring against the rice blast fungus", "setting": "[2]", "value": "Formation of inhibition ring was not observed"},
      {"measurement": "cell death in Arabidopsis thaliana", "setting": "Arabidopsis thaliana", "value": "induced severe cell death"},
      {"measurement": "cell death spots when only the test compounds were sprayed", "setting": "[3]", "value": "cell death spots were not observed"}
    ]},
    {"molecule": "NCCCCN(CCCN)C(=O)CCCCCCCCCCCO", "note": "[YIS12OH4N, ^4N-(12-hydroroxylauroyl)-spermidine]", "values": [
      {"measurement": "severity of cell death compared with the compounds not introduced with hydroxyl group (Lau or ^1N Lau)", "setting": "[1]", "value": "enhanced"},
      {"measurement": "antifungal activity against the rice blast fungus", "setting": "[2]", "value": "did not have antifungal activity"},
      {"measurement": "formation of inhibition ring against the rice blast fungus", "setting": "[2]", "value": "Formation of inhibition ring was not observed"},
      {"measurement": "cell death in Arabidopsis thaliana", "setting": "Arabidopsis thaliana", "value": "induced severe cell death"},
      {"measurement": "PR1 gene expression enhancing action relative to 1NHydLau", "setting": "PR1 gene", "value": "about 3 times"},
      {"measurement": "cell death spots when only the test compounds were sprayed", "setting": "[3]", "value": "cell death spots were not observed"}
    ]},
    {"molecule": "^1N-lauroylspermidine [^1N Lau]", "values": [
      {"measurement": "formation of cell death spots", "setting": "[1]", "value": "formation of fine cell death spots"}
    ]},
    {"molecule": "^1N-nonanoylspermidine [^1N Non]", "values": [
      {"measurement": "formation of cell death spots", "setting": "[1]", "value": "formation of fine cell death spots"},
      {"measurement": "cell death in Arabidopsis thaliana", "setting": "Arabidopsis thaliana", "value": "induced severe cell death"}
    ]},
    {"molecule": "^4N-lauroylspermidine", "values": [
      {"measurement": "formation of cell death spots", "setting": "[1]", "value": "formation of fine cell death spots; also recorded: potent cell death induction effect"},
      {"measurement": "browning of leaf disks", "setting": "[4]", "value": "browning of leaf disks"},
      {"measurement": "phytoalexin accumulation", "setting": "[4]", "value": "evident phytoalexin accumulation"}
    ]},
    {"molecule": "^4N-nonanoylspermidine", "values": [
      {"measurement": "formation of cell death spots", "setting": "[1]", "value": "formation of fine cell death spots"}
    ]}
  ]
}
